Reference: US9482666B2, “High throughput selection of specific cell binding and lytic polypeptides” (priority 2011, dated 2016)

Columns and labels:
Assay in all cases: Functional assay on peptide microarray (CTO/AF555 profile)
S. aureus UAB637 = type: cell-based, Staphylococcus aureus; settings: SA; CTO and AF555 labeled cells
Excerpt: (§1) In order to make our technology more informative, we have developed a procedure for distinguishing those classes of peptides directly on the microarray (see FIG. 1c). Using the intracellular stain CTO we detected the first class (peptide-binders) and the third class (no activity). We decided to involve additional reference dye “Alexa Fluor-555” with an NHS ester active group that attack free amines present in membrane-bound proteins. It was expected, and subsequently shown, that peptide-binders should have signals dominated by both dyes on parallel arrays (profile CTO+AF+). In the case of peptides with killing activity, CTO should leak out of cells once the membrane is disrupted (profile CTO−AF+).
(§2) Before probing, the slides were treated with 90% TFA (trifluor-acetic acid) to get rid of non-immobilized peptides, blocking groups and probable organic impurities followed by DMF, ethanol and deionized water washing. […]
(§3) Turbidity of overnight cultures was measured at OD600. The CFU/ml value was calculated according to McFarland turbidity standard. […]
(§4) Microarrays were scanned by using a Perkin-Elmer ProScanArray HT Microarray Scanner with the 488, 543 and 633 nm excitation lasers at 100% power and 70% photomultiplier tube gain. […] All scanned images were analyzed by using GenePix Pro 6.0 software (Axon Instruments, Union City, Calif., USA). […]

B. subtilis = type: cell-based, Bacillus subtilis; settings: BS; CTO and AF555 labeled cells
Excerpt: as §1, §2, §3, §4

E. coli O111:B4 = type: cell-based, Escherichia coli O111:B4; settings: EC; CTO and AF555 labeled cells
Excerpt: as §1, §2, §3, §4

P. aeruginosa PAO-1 = type: cell-based, Pseudomonas aeruginosa; settings: PA; CTO and AF555 labeled cells
Excerpt: as §1, §2, §3, §4

S. mutans UAB147 = type: cell-based, Streptococcus mutans; settings: SM; CTO and AF555 labeled cells
Excerpt: as §1, §2, §3, §4

Sequence	microarray profile (lytic / binder / no profile) (S. aureus UAB637)	microarray profile (lytic / binder / no profile) (B. subtilis)	microarray profile (lytic / binder / no profile) (E. coli O111:B4)	microarray profile (lytic / binder / no profile) (P. aeruginosa PAO-1)	microarray profile (lytic / binder / no profile) (S. mutans UAB147)
RWRRHKHFKRPHRKHKRGSC	lytic	lytic	no profile	lytic	lytic
DRIFHKMQHKPYKIKKRGSC	binder	no profile	binder	lytic	lytic
